Reference: patent US20100144891A1, “USE OF CYCLOHEXANEHEXOL DERIVATIVES IN THE TREATMENT OF AMYOTROPHIC LATERAL SCLEROSIS” (priority 2007, published 2010)
Entries after “also recorded” stand apart in the source; their conditions may differ.

Assays:
Tg SOD1 G37R mice [1] = experiment: Foot print analyses of gait in ALS mouse model; format: in vivo
Description: (§1) FIG. 2. Motor function of TgSOD1 G37R mice treated or untreated with scyllo-inositol was evaluated using the Rotarod and footprint analyses of gait. […] Stride length 37±2 mm for treated and 18±2 mm for untreated mice (p<0.001). […] Mice were untreated (n=5) or treated with scyllo-inositol (n=5) in drinking water ad libitum from 6.5 months of age and are ongoing at 12 months. Starting at 7.5 months of age, mice underwent weekly evaluation of motor function using the Rotarod test. Mice were given three consecutive trials and the mean time to fall was calculated. […] At 12 months of age, two treated mice were still remaining on the rotarod for >50 sec; untreated mice lost this ability at 11 months of age. […] Scyllo-inositol treatment maintained gait with treated 37±2 versus 18±2 mm stride length in Tg mice (p<0.001).

SOD1 G93V protein [2] = target: T1, SOD1 G93V protein (Homo sapiens, UniProt P00441, G94V); experiment: bis-ANS assay (exposure of hydrophobic faces on SOD1); format: biochemical; settings: in the presence of scyllo-inositol vs protein incubated alone
T1 sequence (P00441 whole entry G94V): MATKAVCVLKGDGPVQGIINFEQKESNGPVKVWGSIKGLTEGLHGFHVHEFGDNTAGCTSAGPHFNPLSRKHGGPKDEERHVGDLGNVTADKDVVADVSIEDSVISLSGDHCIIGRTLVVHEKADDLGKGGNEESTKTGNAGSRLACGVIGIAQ
Source text: (§2) FIG. 1. Aggregation of SOD1 […] protein in the presence and absence of scyllo-inositol. […] Untreated (blue), SOD1:scyllo-inositol ratio of 1:1 (blue), 1:10 (pink) and 1:20(yellow). […] Inositol related compounds were screened in aggregation assays of apo-SOD1 and the following SOD1 mutants, […] and […]. The […] mutant was chosen for its fast aggregation kinetics, while the […] is intermediary between […] and the slow kinetics of apo-SOD1 (Stathopulos, P. B., et al. (2006) J. Biol. Chem. 281, 6184-6193). Using trifluoroethanol (TFE)-induced aggregation, all three SOD1 proteins aggregate maximally within a 2 hour window (Stathopulos P B, et al. (2003) Proc Natl Acad Soc USA. 100:7021-7026). […] The results were confirmed using a bis-ANS assay that determines the exposure of hydrophobic faces on proteins, as aggregation occurs dye binding to SOD1 should increase ([…], Cunningham P, et al (2002) J Biol. Chem. 277:47551-46556). In the presence of scyllo-inositol, the bis-ANS signal was lower than when protein was incubated alone.

apoSOD1 and mutant SOD1 = experiment: Time course study of ThT signal (kinetics of assembly of SOD1 aggregates); format: biochemical; settings: in the presence of scyllo-inositol
Description: Inositol related compounds were screened in aggregation assays of apo-SOD1 and the following SOD1 mutants, […] and […]. The […] mutant was chosen for its fast aggregation kinetics, while the […] is intermediary between […] and the slow kinetics of apo-SOD1 (Stathopulos, P. B., et al. (2006) J. Biol. Chem. 281, 6184-6193). Using trifluoroethanol (TFE)-induced aggregation, all three SOD1 proteins aggregate maximally within a 2 hour window (Stathopulos P B, et al. (2003) Proc Natl Acad Soc USA. 100:7021-7026). […] The results were confirmed using a bis-ANS assay that determines the exposure of hydrophobic faces on proteins, as aggregation occurs dye binding to SOD1 should increase ([…], Cunningham P, et al (2002) J Biol. Chem. 277:47551-46556). In the presence of scyllo-inositol, the bis-ANS signal was lower than when protein was incubated alone.

SOD1 G93V protein [3] = target: T1, SOD1 G93V protein; experiment: Trifluoroethanol (TFE)-induced SOD1 aggregation, thioflavin T (ThT) fluorescence; format: biochemical; settings: SOD1:scyllo-inositol ratio 1:1, 1:10, 1:20 vs untreated
Source text: as §2

apo-SOD1 G93S protein = apo-SOD1 G93S protein (Homo sapiens, UniProt P00441, G94S); experiment: Trifluoroethanol-induced aggregation of apo-SOD1 G93S, thioflavin T signal; format: biochemical; settings: SOD1:scyllo-inositol 1:20, as a function of time
apo-SOD1 G93S protein, sequence (P00441 whole entry G94S): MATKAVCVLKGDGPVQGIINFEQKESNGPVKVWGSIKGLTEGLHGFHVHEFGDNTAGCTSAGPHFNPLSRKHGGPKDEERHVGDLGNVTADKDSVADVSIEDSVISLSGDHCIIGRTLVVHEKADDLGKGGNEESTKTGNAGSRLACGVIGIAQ
Source text: FIG. 4. ApoSOD1 G93S mutant aggregation—Trifluoroethanol-induced aggregation of apo-SOD1 G93S protein in the presence and absence of scyllo-inositol as a function of time. […] Untreated (blue) and SOD1:scyllo-inositol ratio of 1:20(yellow).
Inositol related compounds were screened in aggregation assays of apo-SOD1 and the following SOD1 mutants, G93V and G93S. The G93V mutant was chosen for its fast aggregation kinetics, while the G93S is intermediary between G93V and the slow kinetics of apo-SOD1 (Stathopulos, P. B., et al. (2006) J. Biol. Chem. 281, 6184-6193). Using trifluoroethanol (TFE)-induced aggregation, all three SOD1 proteins aggregate maximally within a 2 hour window (Stathopulos P B, et al. (2003) Proc Natl Acad Soc USA. 100:7021-7026). […] The results were confirmed using a bis-ANS assay that determines the exposure of hydrophobic faces on proteins, as aggregation occurs dye binding to SOD1 should increase (Rakhit R, Cunningham P, et al (2002) J Biol. Chem. 277:47551-46556). In the presence of scyllo-inositol, the bis-ANS signal was lower than when protein was incubated alone.

[4] = target: Apo-wild type SOD1 protein (Homo sapiens, UniProt P00441); experiment: Trifluoroethanol-induced aggregation of Apo-wild type SOD1, thioflavin T signal; format: biochemical; settings: SOD1:scyllo-inositol 1:20, 15 minute incubation
Apo-wild type SOD1 protein, sequence (P00441 whole entry): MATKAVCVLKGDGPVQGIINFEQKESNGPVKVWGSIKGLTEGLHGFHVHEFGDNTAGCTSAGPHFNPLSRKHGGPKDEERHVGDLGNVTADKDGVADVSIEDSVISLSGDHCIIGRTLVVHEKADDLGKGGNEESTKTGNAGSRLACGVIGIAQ
Description: FIG. 3. ApoSOD aggregation-Trifluoroethanol-induced aggregation of Apo-wild type SOD1 protein in the presence and absence of scyllo-inositol after a 15 minute incubation. The thioflavin T signal increases in the presence of scyllo-inositol. Untreated (blue) and SOD1:scyllo-inositol ratio of 1:20(yellow). Inositol related compounds were screened in aggregation assays of apo-SOD1 and the following SOD1 mutants, […] and […]. The […] mutant was chosen for its fast aggregation kinetics, while the […] is intermediary between […] and the slow kinetics of apo-SOD1 (Stathopulos, P. B., et al. (2006) J. Biol. Chem. 281, 6184-6193). Using trifluoroethanol (TFE)-induced aggregation, all three SOD1 proteins aggregate maximally within a 2 hour window (Stathopulos P B, et al. (2003) Proc Natl Acad Soc USA. 100:7021-7026). […] The results were confirmed using a bis-ANS assay that determines the exposure of hydrophobic faces on proteins, as aggregation occurs dye binding to SOD1 should increase ([…], Cunningham P, et al (2002) J Biol. Chem. 277:47551-46556). In the presence of scyllo-inositol, the bis-ANS signal was lower than when protein was incubated alone.

SOD1G93A = experiment: Negative stain electron microscopy of SOD1 aggregates/fibres; format: biochemical; settings: vs control samples / SOD1 incubated alone
Tg SOD1 G37R mice [5] = experiment: Rotarod test of motor function in ALS mouse model; format: in vivo
Description: as §1

[6] = system: cytidine monophosphorylphosphatidate; settings: cited from earlier work
[7] = system: folate-resistant mouse neural tube defects; settings: compared with myo-inositol; cited from earlier work

For `O[C@H]1[C@H](O)[C@@H](O)[C@H](O)[C@@H](O)[C@@H]1O` [scyllo-inositol], the stride length (Tg SOD1 G37R mice [1]; treated Tg SOD1 G37R mice, untreated 18±2 mm, p<0.001) was 37±2 mm, the “gait (foot print analyses)” value (Tg SOD1 G37R mice [1]; treated versus untreated Tg mice) was “maintained” and the bis-ANS signal (SOD1 G93V protein [2]) was “lower; also recorded: decreases”. The “kinetics of assembly of SOD1 aggregates” value (apoSOD1 and mutant SOD1) was “greatly reduced; also recorded: most effective compound”, the “Thioflavin T (ThT) fluorescence signal” value (SOD1 G93V protein [3]) was “increased; also recorded: increases in a scyllo-inositol concentration dependent manner” and the “Thioflavin T signal / trifluoroethanol-induced aggregation” value (apo-SOD1 G93S protein) was “increased; also recorded: increases in the presence of scyllo-inositol to a greater extent than in apo-SOD1 G93S protein alone”. The “Thioflavin T signal / trifluoroethanol-induced aggregation” value [4] was “increases”, the “number of SOD1 aggregates/fibres (negative stain electron microscopy)” value (SOD1G93A) was “decreased; also recorded: no fibres were detected” and the onset of disease (Tg SOD1 G37R mice [5]; Tg SOD1 G37R mice, scyllo-inositol in drinking water ad libitum from 6.5 months of age, untreated 10.1±0.06) was 10.6±0.22 months. For the same compound, the “time remaining on the rotarod” value (Tg SOD1 G37R mice [5]; at 12 months of age, two treated mice, untreated mice lost this ability at 11 months) was greater than 50 s and the “motor function on the rotarod (latency to fall)” value (Tg SOD1 G37R mice [5]; treated vs untreated Tg SOD1 G37R mice, p=0.029) was “improvement; also recorded: significantly better”.

For `OC1C(O)C(O)C(O)C(O)C1O` (stereo not drawn) [Epi-inositol, epi-inositol], the “reversing lithium effects on cytidine monophosphorylphosphatidate” value [6] is listed as “effective”.

For `OC1C(O)C(O)C(O)C(O)C1O` [D-chiro-inositol], the “prevention of folate-resistant neural tube defects” value [7] is given as “more effective than myo-inositol”.
